The target in the first assay is T1, chimeric human H3 receptor (Homo sapiens, UniProt Q9Y5N1, E19D).
T1 construct: made in house; host or cells: Sf9 insect cells (baculovirus infection); P2 membrane preparation
T1 sequence (Q9Y5N1 with tags, fused parts or gaps E19D): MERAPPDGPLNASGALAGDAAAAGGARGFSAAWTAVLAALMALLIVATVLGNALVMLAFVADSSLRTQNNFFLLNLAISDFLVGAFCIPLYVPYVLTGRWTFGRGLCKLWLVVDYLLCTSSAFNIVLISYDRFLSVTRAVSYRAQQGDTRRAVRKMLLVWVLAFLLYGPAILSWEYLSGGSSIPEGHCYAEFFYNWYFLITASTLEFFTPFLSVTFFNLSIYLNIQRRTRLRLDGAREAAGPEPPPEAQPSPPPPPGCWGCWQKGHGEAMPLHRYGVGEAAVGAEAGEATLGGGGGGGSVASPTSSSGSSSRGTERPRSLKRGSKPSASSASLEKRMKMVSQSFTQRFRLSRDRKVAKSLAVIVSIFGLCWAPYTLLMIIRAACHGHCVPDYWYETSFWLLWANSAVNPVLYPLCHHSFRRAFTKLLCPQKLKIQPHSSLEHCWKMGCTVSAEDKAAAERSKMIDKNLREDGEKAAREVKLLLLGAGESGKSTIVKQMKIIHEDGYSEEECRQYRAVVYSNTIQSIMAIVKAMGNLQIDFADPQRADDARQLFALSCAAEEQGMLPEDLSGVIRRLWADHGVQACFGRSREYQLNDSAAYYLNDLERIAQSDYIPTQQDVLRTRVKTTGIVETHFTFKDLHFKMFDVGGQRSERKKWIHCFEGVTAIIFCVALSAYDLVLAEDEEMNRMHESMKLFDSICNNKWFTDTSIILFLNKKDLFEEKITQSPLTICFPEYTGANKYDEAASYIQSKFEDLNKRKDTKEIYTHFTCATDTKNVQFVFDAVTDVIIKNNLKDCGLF
Description: Chimeric human H3 receptor GTP binding assay (agonist-stimulated GTP-gamma35S binding, Example 7). It is filed as biochemical. To be noted: "*" in Ki of Table II; assay of Example 7; read-out: Ki. An excerpt: This Example illustrates a representative assay for evaluating agonist-stimulated GTP-gamma^35S binding (“GTP binding”) activity. […] This agonist-stimulated GTP binding activity can also be used to detect partial agonism mediated by antagonist compounds. A compound analyzed in this assay is referred to herein as a “test compound.”
Four independent baculoviral stocks (one directing the expression of the chimeric human H3 receptor and three directing the expression of each of the three subunits of a heterotrimeric G-protein) are used to infect a culture of Sf9 cells as described above. P2 membranes are prepared as described above, and agonist-stimulated GTP binding on the P2 membranes is assessed using histamine (Sigma Chemical Co., St. Louis, Mo.) as agonist in order to ascertain that the receptor/G-protein-alpha-beta-gamma combination(s) yield a functional response as measured by GTP binding. P2 membranes are resuspended by Dounce homogenization (tight pestle) in GTP binding assay buffer (50 mM Tris pH 7.4, 120 mM NaCl, 5 mM MgCl2, 2 mM EGTA, 1 mg/ml BSA, 0.2 mg/ml bacitracin, 0.02 mg/ml aprotinin, 0.01 mg/ml saponin, 10 μM GDP) and added to assay tubes at a concentration of 35 μg protein/reaction tube. […] In competition experiments, non-radiolabeled test compounds are added to separate reactions at concentrations ranging from 10^−10 M to 10^−6 M along with 1 μM histamine to yield a final volume of 0.20 ml.
Neutral antagonists are antagonists that are substantially free of inherent agonist activity, and include those test compounds that reduce the histamine-stimulated GTP binding activity towards, but not below, baseline levels. In contrast, in the absence of added histamine, inverse agonists reduce the GTP binding activity of the receptor-containing membranes below baseline.
After a 60-min incubation at room temperature, reactions are terminated by vacuum filtration over WHATMAN GF/C filters (pre-soaked in wash buffer, 0.1% BSA) followed by washing with ice-cold wash buffer (50 mM Tris pH 7.4, 120 mM NaCl). The amount of receptor-bound (and thereby membrane-bound) GTP-gamma^35S is determined by measuring the filter-bound radioactivity, preferably by liquid scintillation spectrometry of the washed filters. […] Data is expressed as percent above basal (baseline). The results of GTP binding experiments are analyzed using SIGMAPLOT software (SPSS Inc., Chicago, Ill.).
IC50 values are calculated by non-linear regression analysis of dose-response curves using Kaleidograph (Synergy Software, Reading, Pa.).
Background: GTPγS resists hydrolysis and so accumulates on activated G proteins.
Turning to `O=C(Cc1c(Cl)ccc(Cl)c1Cl)N1CCN(CC(=O)N2CCN(C3CCC3)CC2)CC1` [Compound 501, 1-cyclobutyl-4-({4-[(2,3,6-trichlorophenyl)acetyl]piperazin-1-yl}acetyl)piperazine], the Ki was under 1 µM. With `CC(=O)c1ccc(N2CCN(CC(=O)N3CCN(C4CCC4)CC3)CC2)c(C(F)(F)F)c1` [Compound 462, 1-[4-{4-[2-(4-cyclobutylpiperazin-1-yl)-2-oxoethyl]piperazin-1-yl}-3-(trifluoromethyl)phenyl] ethanone], the Ki was under 1 µM.

For `CCC(C)N1CCN(C(=O)CN2CCC(N3CCCCC3)CC2)CC1` (stereo not shown) [Compound 447], the Ki was under 1 µM.

The same assay, now with this note: Table II "Ki", symbol "*": Ki in the assay of Example 7; read-out: Ki.
As for `CSc1cccc(-c2cnc(N3CCN(CC(=O)N4CCN(C5CCC5)CC4)CC3)cn2)c1` [Compound 938, 2-{4-[2-(4-cyclobutylpiperazin-1-yl)-2-oxoethyl]piperazin-1-yl}-5-[3-(methylthio)phenyl] pyrazine], the Ki was under 1 µM.

For `CCC(C)N1CCN(C(=O)CN2CCN(c3ccccc3)CC2)CC1` (stereo not shown) [Compound 857, 1-sec-butyl-4-[(4-phenylpiperazin-1-yl)acetyl]piperazine], the Ki is under 1 µM. For the molecule `CC(C)N1CCN(C(=O)CN2CCN(c3ccc(C(F)(F)F)cc3)CC2)CC1` [Compound 845, 1-isopropyl-4-({4-[4-(trifluoromethyl)phenyl]piperazin-1-yl}acetyl)piperazine], the Ki is under 1 µM. Take `O=C(CN1CCN(c2ccc([N+](=O)[O-])cc2)CC1)N1CCN(C2CCC2)CC1` [Compound 786, 1-cyclobutyl-4-{[4-(4-nitrophenyl)piperazin-1-yl]acetyl}piperazine]: the Ki is under 1 µM. As to `COc1ccc(N2CCN(CC(=O)N3CCN(C4CCCCC4)CC3)CC2)cc1` [Compound 823, 1-cyclohexyl-4-{[4-(4-methoxyphenyl)piperazin-1-yl]acetyl}piperazine], the Ki is under 1 µM. Take `O=C(CN1CCN(c2ccc(F)cc2)CC1)N1CCN(C2CCC2)CC1` [Compound 775, 1-cyclobutyl-4-{[4-(4-fluorophenyl)piperazin-1-yl]acetyl}piperazine]: the Ki was under 1 µM.

Still in this assay, the particulars now being: Table II, "*" in Ki; assay of Example 7; read-out: Ki.
`CC(C)Oc1cccc(-c2ccc(N3CCN(CC(=O)N4CCN(C5CCC5)CC4)CC3)cc2)c1` [Compound 755, 1-cyclobutyl-4-{[4-(3′-isopropoxybiphenyl-4-yl)piperazin-1-yl]acetyl}piperazine]: the Ki is under 1 µM. Turning to `COc1cc(-c2ccc(N3CCN(CC(=O)N4CCN(C5CCC5)CC4)CC3)cc2)cc(OC)c1OC` [Compound 725, 1-cyclobutyl-4-{[4-(3′,4′,5′-trimethoxybiphenyl-4-yl)piperazin-1-yl]acetyl}piperazine], the Ki is under 1 µM. For `COc1ccc(N2CCN(CC(=O)N3CCN(C4CCC4)CC3)CC2)cc1OC` [Compound 733, 1-cyclobutyl-4-{[4-(3,4-dimethoxyphenyl)piperazin-1-yl]acetyl}piperazine], the Ki was under 1 µM. Regarding `CCC1CCCCN1C(=O)c1cccc(N2CCN(CC(=O)N3CCN(C4CCC4)CC3)CC2)c1` (stereo not shown) [Compound 638, 1-cyclobutyl-4-[(4-{3-[(2-ethylpiperidin-1-yl)carbonyl]phenyl}piperazin-1-yl)acetyl]piperazine], the Ki is under 1 µM. On to `O=C(CN1CCN(c2ccc(C(=O)N3CCC(F)CC3)cc2)CC1)N1CCN(C2CCC2)CC1` [Compound 648, 1-cyclobutyl-4-[(4-{4-[(4-fluoropiperidin-1-yl)carbonyl]phenyl}piperazin-1-yl)acetyl]piperazine], for which the Ki was under 1 µM.

Staying with this assay, now noted: Table II; assay of Example 7; "*" in Ki; read-out: Ki.
As to `COc1ccccc1-c1cnc(N2CCN(CC(=O)N3CCN(C4CCC4)CC3)CC2)cn1` [Compound 951, 2-{4-[2-(4-cyclobutylpiperazin-1-yl)-2-oxoethyl]piperazin-1-yl}-5-(2-methoxyphenyl)pyrazine], the Ki is under 1 µM. Still for that read-out and setting: the same measure for `CC(C)N(C)C(=O)c1ccc(N2CCN(CC(=O)N3CCN(C4CCC4)CC3)CC2)cc1` [Compound 1127, 4-{4-[2-(4-cyclobutylpiperazin-1-yl)-2-oxoethyl]piperazin-1-yl}-N-isopropyl-N-methylbenzamide]: under 1 µM. Turning to `COc1ccc(OC)c(-c2ccc(N3CCN(CC(=O)N4CCN(C5CCC5)CC4)CC3)nn2)c1` [Compound 1041, 3-{4-[2-(4-cyclobutylpiperazin-1-yl)-2-oxoethyl]piperazin-1-yl}-6-(2,5-dimethoxyphenyl) pyridazine], the Ki was under 1 µM. Regarding `O=C(CN1CCN(c2cnc(-c3cccc(Cl)c3Cl)cn2)CC1)N1CCN(C2CCC2)CC1` [Compound 967, 2-{4-[2-(4-cyclobutylpiperazin-1-yl)-2-oxoethyl]piperazin-1-yl}-5-(2,3-dichlorophenyl)pyrazine], the Ki is under 1 µM.

With `O=C(CN1CCN(c2cnc(-c3ccc(Cl)cc3Cl)cn2)CC1)N1CCN(C2CCC2)CC1` [Compound 968, 2-{4-[2-(4-cyclobutylpiperazin-1-yl)-2-oxoethyl]piperazin-1-yl}-5-(2,4-dichlorophenyl)pyrazine], the Ki is under 1 µM. For `COc1cccc(OC)c1-c1cnc(N2CCN(CC(=O)N3CCN(C4CCC4)CC3)CC2)cn1` [Compound 970, 2-{4-[2-(4-cyclobutylpiperazin-1-yl)-2-oxoethyl]piperazin-1-yl}-5-(2,6-dimethoxyphenyl) pyrazine], the Ki is under 1 µM.

Consider `CCCCCNC(=O)c1ccc(N2CCN(CC(=O)N3CCN(C4CCC4)CC3)CC2)cc1` [Compound 1135, 4-{4-[2-(4-cyclobutylpiperazin-1-yl)-2-oxoethyl]piperazin-1-yl}-N-pentylbenzamide], for which the Ki is under 1 µM.

Regarding `O=C(CN1CCN(c2ccc(-c3ccccc3F)nn2)CC1)N1CCN(C2CCC2)CC1` [Compound 1005, 3-{4-[2-(4-cyclobutylpiperazin-1-yl)-2-oxoethyl]piperazin-1-yl}-6-(2-fluorophenyl)pyridazine], the Ki is under 1 µM.

The same assay, now with this note: assay of Example 7; "*" in Ki of Table II; read-out: Ki.
As to `COc1ccc(C(=O)NC2CCN(CC(=O)N3CCN(C4CCC4)CC3)C2)cc1F` (stereo not shown) [Compound 1243, N-{1-[2-(4-cyclobutylpiperazin-1-yl)-2-oxoethyl]pyrrolidin-3-yl}-3-fluoro-4-methoxybenzamide], the Ki was under 1 µM. `CCC(C)N1CCN(C(=O)CN2CCN(c3ccc(C#N)cc3)CC2)CC1` (stereo not shown) [Compound 1150, 4-{4-[2-(4-sec-butylpiperazin-1-yl)-2-oxoethyl]piperazin-1-yl}benzonitrile]: the Ki is under 1 µM.

As for `O=C(NC1CCN(CC(=O)N2CCN(C3CCC3)CC2)CC1)c1ccc(Oc2ccccc2)cc1` [Compound 1224, N-{1-[2-(4-cyclobutylpiperazin-1-yl)-2-oxoethyl]piperidin-4-yl}-4-phenoxybenzamide], the Ki is under 1 µM.

For the molecule `CNC(=O)c1ccc(N2CCN(CC(=O)N3CCN(C4CCC4)CC3)CC2)nc1` [Compound 1167, 6-{4-[2-(4-cyclobutylpiperazin-1-yl)-2-oxoethyl]piperazin-1-yl}-N-methylnicotinamide], the Ki was under 1 µM.

Staying with this assay, now noted: assay of Example 7; symbol * in column headed Ki of Table II; read-out: Ki.
For `CC(=O)c1ccc(N2CCN(CC(=O)N3CCN(C4CCCC4)CC3)CC2)cc1` [Compound 327, 1-(4-{4-[2-(4-cyclopentylpiperazin-1-yl)-2-oxoethyl]piperazin-1-yl}phenyl)ethanone], the Ki is under 1 µM.

As to `CCN1CCN(C(=O)CN2CCN(c3ccc(OC)c(OC)c3)CC2)CC1` [Compound 284, 1-(3,4-dimethoxyphenyl)-4-[2-(4-ethylpiperazin-1-yl)-2-oxoethyl]piperazine], the Ki was under 1 µM. Turning to `COc1ccc(Cl)cc1N1CCN(CC(=O)N2CCN(C3CCC3)CC2)CC1` [Compound 366, 1-(5-chloro-2-methoxyphenyl)-4-[2-(4-cyclobutylpiperazin-1-yl)-2-oxoethyl]piperazine], the Ki is under 1 µM.

With `CCCN(CCC)C1CCN(CC(=O)N2CCN(C3CCC3)CC2)CC1` [Compound 432, 1-[2-(4-cyclobutylpiperazin-1-yl)-2-oxoethyl]-N,N-dipropylpiperidin-4-amine], the Ki is under 1 µM. On to `O=C(CN1CCC2(CC1)C(=O)Nc1cccnc12)N1CCN(C2CCC2)CC1` [Compound 435, 1-[2-(4-cyclobutylpiperazin-1-yl)-2-oxoethyl]spiro[piperidine-4,3′-pyrrolo[3,2-b]pyridin]-2′(1′H)-one], for which the Ki is under 1 µM.

Broadly, the Ki is the equilibrium dissociation constant of an inhibitor or competing ligand from its target.

Source of the values: US7851474B2, “Dipiperazinyl ketones and related analogues” (Neurogen Corporation, priority 2005, dated 2010).
